Measured values: patent US5824540A, “Pseudomonas putida strain with dioxygenase activity” (Merck & Co., Inc., priority 1996, dated 1998)

System: P. putida F1
Test: Growth of P. putida F1 test tube cultures in MMC medium with ICR 191 (mutation procedure 1)
Format: cell-based, Pseudomonas putida
Conditions: 16 to 18 hour incubation, 30° C., dark
Experimental: In procedure 1, cells were grown overnight in TSB at 30° C. and diluted 10^-4 with phosphate buffer (100 mM, pH 7.2). Several 18×150 mm test tubes containing 3 ml of MMC medium plus 0 (control), 10, 20, 30, 40, 50, 75, or 100 mg/l ICR 191 were inoculated with 0.1 ml of the diluted inoculum. Test tube cultures were incubated in the dark at 30° C. with 220 RPM agitation. […] The cells from 20 mg/l ICR 191 culture were harvested by centrifugation, washed twice with phosphate buffer.

SMILES: COc1ccc2nc3cc(Cl)ccc3c(NCCCNCCCl)c2c1 [ICR 191]
- effect on growth (10 mg/l ICR 191): no detectable effect on growth
- level of growth relative to control (20 mg/l ICR 191): approximately half that of the control
- growth of culture (30 mg/l ICR 191): a trace of growth
- growth of culture (ICR 191 concentrations above 30 mg/l): completely inhibited growth
